Assay results: ChEMBL document CHEMBL4359832, “Fragment-Based Discovery of Novel Potent Sepiapterin Reductase Inhibitors” (J Med Chem, 2019)

Assay: physchem
Conditions: buffer, pH 7.4

Question: With `CC1Cc2ccccc2N1C(=O)c1c(O)cc(Cl)cc1Cl` (stereo not drawn) as the molecule, how does the logD read?
Answer: Its logD is 3.5.

Question: For `O=C(c1c(O)cc(Cl)cc1Cl)N1CCCC2(CCC2)C1`, which logD is on record?
Answer: The logD was 3.7.

Question: With `COc1cc(Cl)cc(Cl)c1C(=O)N1CCC2(CCC2)C1` as the molecule, how does the logD read?
Answer: Its logD is 4.

Question: With `O=C(c1ncc(Cl)cc1O)N1CCC2(CCC2)C1` as the molecule, how does the logD read?
Answer: The logD was 4.9.

Question: Which logD does the source give for `O=C(c1c(O)cc(Cl)cc1Cl)N1CCC(Cc2ccccc2)C1` (stereo not drawn) here?
Answer: Its logD is 3.8.

Question: Which logD does the source give for `O=C(c1c(O)cncc1Cl)N1CCC2(CCC2)C1` here?
Answer: The logD was 1.2.

Question: With `O=C(c1c(O)cc(Cl)cc1Cl)N1CCC(c2cccnc2)C1` (racemic) as the molecule, how does the logD read?
Answer: The logD was 1.7.

Question: Which logD does the source give for `Cn1cc(C2CCN(C(=O)c3c(O)cc(Cl)cc3Cl)C2)cn1` (racemic) here?
Answer: The logD was 1.6.
